≈ marks a conversion by molar mass, not a printed value. Blank lines part the entries; values can stand above or below the compound they belong to. Calls of active or inactive are those of the source. The calls are words filed in the database; no cut-off is given here.
How the values were obtained:
Staphylococcus aureus [1] = test: Drug binding to daptomycin-transitional Staphylococcus aureus isolate 629 bloodstream form isolated from patient with endocarditis at 40 ug after 10 mins by radial diffusion assay; assay type: ADME, organism-based
Staphylococcus aureus [2] = test: Drug binding to methicillin-susceptible Staphylococcus aureus isolate 616 bloodstream form isolated from patient with endocarditis at 40 ug after 10 mins by radial diffusion assay; assay type: ADME, organism-based; details: in vivo
Staphylococcus aureus [3] = test: Drug binding to daptomycin-nonsusceptible Staphylococcus aureus isolate 703 bloodstream form isolated from patient with endocarditis at 40 ug after 10 mins by radial diffusion assay; assay type: ADME, organism-based
Staphylococcus aureus [4] = test: Drug binding to daptomycin-nonsusceptible Staphylococcus aureus isolate 701 bloodstream form isolated from patient with endocarditis at 40 ug after 10 mins by radial diffusion assay; assay type: ADME, organism-based
Staphylococcus aureus [5] = test: Reduction of membrane permeabilization in methicillin-susceptible Staphylococcus aureus isolate 616 bloodstream form isolated from patient with endocarditis assessed as calcein retention at 1.5 ug/ml after 120 mins by fluorometric analysis; assay type: functional, organism-based
Staphylococcus aureus [6] = test: Reduction of membrane permeabilization in daptomycin-nonsusceptible Staphylococcus aureus isolate 703 bloodstream form isolated from patient with endocarditis assessed as calcein retention at 1.5 ug/ml after 120 mins by fluorometric analysis; assay type: functional, organism-based
Staphylococcus aureus [7] = test: Induction of autolysis in methicillin-susceptible Staphylococcus aureus isolate 616 bloodstream form isolated from patient 6 ug/ml within 4 to 24 hrs; assay type: functional, organism-based
Staphylococcus aureus [8] = test: Antibacterial activity against daptomycin-nonsusceptible Staphylococcus aureus isolate 703 bloodstream form isolated from patient with endocarditis by Etest; assay type: functional
Staphylococcus aureus [9] = test: Induction of cell membrane depolarization in daptomycin-nonsusceptible Staphylococcus aureus isolate 701 bloodstream form isolated from patient with endocarditis at 40 ug/ml after 60 mins by flow cytometry; assay type: functional, organism-based
Staphylococcus aureus [10] = test: Induction of cell membrane depolarization in daptomycin-nonsusceptible Staphylococcus aureus isolate 703 bloodstream form isolated from patient with endocarditis at 6 ug/ml after 60 mins by flow cytometry; assay type: functional, organism-based
Staphylococcus aureus [11] = test: Induction of cell membrane depolarization in daptomycin-transitional Staphylococcus aureus isolate 629 bloodstream form isolated from patient with endocarditis at 0.75 ug/ml after 60 mins by flow cytometry; assay type: functional, organism-based
Staphylococcus aureus [12] = test: Antibacterial activity against Staphylococcus aureus SA113 by Etset; assay type: functional
Staphylococcus aureus [13] = test: Antibacterial activity against daptomycin-transitional Staphylococcus aureus isolate 629 bloodstream form isolated from patient with endocarditis assessed as inhibition on heterogeneous subpopulation survival rate at 0.5 and 1 ug/ml after 48 hrs; assay type: functional, organism-based
Staphylococcus aureus [14] = test: Induction of cell membrane depolarization in methicillin-susceptible Staphylococcus aureus isolate 616 bloodstream form isolated from patient with endocarditis at 40 ug/ml after 60 mins by flow cytometry; assay type: functional, organism-based
Staphylococcus aureus [15] = test: Induction of cell membrane depolarization in daptomycin-nonsusceptible Staphylococcus aureus isolate 703 bloodstream form isolated from patient with endocarditis at 0.75 ug/ml after 60 mins by flow cytometry; assay type: functional, organism-based
Staphylococcus aureus [16] = test: Drug binding to daptomycin-transitional Staphylococcus aureus isolate 629 bloodstream form isolated from patient with endocarditis at 6 ug after 10 mins by radial diffusion assay; assay type: ADME, organism-based
Staphylococcus aureus [17] = test: Antibacterial activity against daptomycin-transitional Staphylococcus aureus isolate 629 bloodstream form isolated from patient with endocarditis by Etest; assay type: functional
Staphylococcus aureus [18] = test: Induction of cell membrane depolarization in methicillin-susceptible Staphylococcus aureus isolate 616 bloodstream form isolated from patient with endocarditis at 0.75 ug/ml after 60 mins by flow cytometry; assay type: functional, organism-based
Staphylococcus aureus [19] = test: Induction of cell membrane depolarization in daptomycin-nonsusceptible Staphylococcus aureus isolate 701 bloodstream form isolated from patient with endocarditis at 6 ug/ml after 60 mins by flow cytometry; assay type: functional, organism-based
Staphylococcus aureus [20] = test: Drug binding to daptomycin-nonsusceptible Staphylococcus aureus isolate 701 bloodstream form isolated from patient with endocarditis at 6 ug after 10 mins by radial diffusion assay; assay type: ADME, organism-based
Staphylococcus aureus [21] = test: Induction of cell membrane depolarization in daptomycin-transitional Staphylococcus aureus isolate 629 bloodstream form isolated from patient with endocarditis at 40 ug/ml after 60 mins by flow cytometry; assay type: functional, organism-based
Staphylococcus aureus [22] = test: Antibacterial activity against daptomycin-nonsusceptible Staphylococcus aureus isolate 701 bloodstream form isolated from patient with endocarditis assessed as inhibition on heterogeneous subpopulation survival rate at 0.5 and 4 ug/ml after 48 hrs; assay type: functional, organism-based
Staphylococcus aureus [23] = test: microbe, parasite or virus in culture; details: 616
Description: Antibacterial activity against methicillin-susceptible Staphylococcus aureus isolate 616 bloodstream form isolated from patient with endocarditis by Etest

Staphylococcus aureus [24] = test: Antibacterial activity against methicillin-susceptible Staphylococcus aureus isolate 616 bloodstream form isolated from patient with endocarditis assessed as inhibition on heterogeneous subpopulation survival rate at 0.5 and 1 ug/ml after 48 hrs; assay type: functional, organism-based
Staphylococcus aureus [25] = test: Induction of cell membrane depolarization in daptomycin-nonsusceptible Staphylococcus aureus isolate 701 bloodstream form isolated from patient with endocarditis at 0.75 ug/ml after 60 mins by flow cytometry; assay type: functional, organism-based
Staphylococcus aureus [26] = test: Induction of cell membrane depolarization in daptomycin-transitional Staphylococcus aureus isolate 629 bloodstream form isolated from patient with endocarditis at 6 ug/ml after 60 mins by flow cytometry; assay type: functional, organism-based
Staphylococcus aureus [27] = test: Antibacterial activity against daptomycin-nonusceptible Staphylococcus aureus isolate 703 bloodstream form isolated from patient with endocarditis assessed as inhibition on heterogeneous subpopulation survival rate at 0.5 and 4 ug/ml after 48 hrs; assay type: functional, organism-based
Staphylococcus aureus [28] = test: Drug binding to daptomycin-nonsusceptible Staphylococcus aureus isolate 703 bloodstream form isolated from patient with endocarditis at 6 ug after 10 mins by radial diffusion assay; assay type: ADME, organism-based
Staphylococcus aureus [29] = test: Antibacterial activity against daptomycin-nonsusceptible Staphylococcus aureus isolate 701 bloodstream form isolated from patient with endocarditis by Etest; assay type: functional
Staphylococcus aureus [30] = test: Induction of autolysis in daptomycin-nonsusceptible Staphylococcus aureus isolate 703 bloodstream form isolated from patient 6 ug/ml within 4 to 24 hrs; assay type: functional, organism-based
Staphylococcus aureus [31] = test: Reduction of membrane permeabilization in daptomycin-nonsusceptible Staphylococcus aureus isolate 701 bloodstream form isolated from patient with endocarditis assessed as calcein retention at 1.5 ug/ml after 120 mins by fluorometric analysis; assay type: functional, organism-based
Staphylococcus aureus [32] = test: Induction of cell membrane depolarization in methicillin-susceptible Staphylococcus aureus isolate 616 bloodstream form isolated from patient with endocarditis at 6 ug/ml after 60 mins by flow cytometry; assay type: functional, organism-based
Staphylococcus aureus [33] = test: Reduction of membrane permeabilization in daptomycin-transitional Staphylococcus aureus isolate 629 bloodstream form isolated from patient with endocarditis assessed as calcein retention at 1.5 ug/ml after 120 mins by fluorometric analysis; assay type: functional, organism-based
Staphylococcus aureus [34] = test: Antibacterial activity against Staphylococcus aureus SA113 harboring null mutation in mprF gene by Etset; assay type: functional
Staphylococcus aureus [35] = test: Drug binding to methicillin-susceptible Staphylococcus aureus isolate 616 bloodstream form isolated from patient with endocarditis at 6 ug after 10 mins by radial diffusion assay; assay type: ADME, organism-based; details: in vivo
Staphylococcus aureus [36] = test: Induction of autolysis in daptomycin-nonsusceptible Staphylococcus aureus isolate 701 bloodstream form isolated from patient 6 ug/ml within 4 to 24 hrs; assay type: functional, organism-based
Staphylococcus aureus [37] = test: Induction of cell membrane depolarization in daptomycin-nonsusceptible Staphylococcus aureus isolate 703 bloodstream form isolated from patient with endocarditis at 40 ug/ml after 60 mins by flow cytometry; assay type: functional, organism-based

- Drug uptake (Staphylococcus aureus [1]): 11.7 µg/mL
- Drug uptake (Staphylococcus aureus [2]): 12.4 µg/mL
- Drug uptake (Staphylococcus aureus [3]): 8 µg/mL
- Drug uptake (Staphylococcus aureus [4]): 11.7 µg/mL
Compound: H-ALYKKFKKKLLKSLKRLG-OH

Compound: CCCCCCCCCC(=O)N[C@@H](Cc1c[nH]c2ccccc12)C(=O)N[C@H](CC(N)=O)C(=O)N[C@@H](CC(=O)O)C(=O)N[C@@H]1C(=O)NCC(=O)N[C@@H](CCCN)C(=O)N[C@@H](CC(=O)O)C(=O)N[C@H](C)C(=O)N[C@@H](CC(=O)O)C(=O)NCC(=O)N[C@H](CO)C(=O)N[C@@H]([C@H](C)CC(=O)O)C(=O)N[C@@H](CC(=O)c2ccccc2N)C(=O)O[C@@H]1C
- Activity (Staphylococcus aureus [5]): inactive
- Activity (Staphylococcus aureus [6]): Active
- Activity (Staphylococcus aureus [7]): Active
- MIC (Staphylococcus aureus [8]): 2 µg/mL (≈ 1.23 µM)
- Activity (Staphylococcus aureus [9]): inactive
- Activity (Staphylococcus aureus [10]): inactive
- Activity (Staphylococcus aureus [11]): inactive
- MIC (Staphylococcus aureus [12]): 0.38 µg/mL (≈ 0.234 µM)
- Activity (Staphylococcus aureus [13]): inactive
- Activity (Staphylococcus aureus [14]): inactive
- Activity (Staphylococcus aureus [15]): inactive
- Drug uptake (Staphylococcus aureus [16]): 1.61 µg/mL
- MIC (Staphylococcus aureus [17]): 0.75 µg/mL (≈ 0.463 µM)
- Activity (Staphylococcus aureus [18]): Active
- Activity (Staphylococcus aureus [19]): inactive
- Drug uptake (Staphylococcus aureus [20]): 2.32 µg/mL
- Activity (Staphylococcus aureus [21]): inactive
- Activity (Staphylococcus aureus [22]): inactive
- MIC (Staphylococcus aureus [23]): 0.5 µg/mL (≈ 0.309 µM)
- Activity (Staphylococcus aureus [24]): inactive
- Activity (Staphylococcus aureus [25]): inactive
- Activity (Staphylococcus aureus [26]): inactive
- Activity (Staphylococcus aureus [27]): inactive
- Drug uptake (Staphylococcus aureus [28]): 2.24 µg/mL
- MIC (Staphylococcus aureus [29]): 2 µg/mL (≈ 1.23 µM)
- Activity (Staphylococcus aureus [30]): inactive
- Activity (Staphylococcus aureus [31]): Active
- Activity (Staphylococcus aureus [32]): Active
- Activity (Staphylococcus aureus [33]): Active
- MIC (Staphylococcus aureus [34]): 0.094 µg/mL (≈ 0.058 µM)
- Drug uptake (Staphylococcus aureus [35]): 5.4 µg/mL
- Activity (Staphylococcus aureus [36]): inactive
- Activity (Staphylococcus aureus [37]): inactive

— ChEMBL document CHEMBL1151454, “Failures in clinical treatment of Staphylococcus aureus Infection with daptomycin are associated with alterations in surface charge, membrane phospholipid asymmetry, and drug binding” (Antimicrob Agents Chemother, 2008)
